Melting point and IC50 data for 3 compounds are collected here from patent US6432959B1, “Inhibitors of farnesyl-protein transferase” (Schering Corporation, priority 1998, dated 2002).

Series [1] has as its target T1, partially purified rat brain farnesyl protein transferase (FPT) (Rattus norvegicus, UniProt Q02293+Q04631).
T1 construct: partially purified rat brain farnesyl protein transferase (FPT); from tissue; host or cells: rat brain
The experiment in a line: FPT IC50, in vitro enzyme assay (inhibition of Ras-CVLS farnesylation). Format: biochemical. Particulars: inhibition of Ras-CVLS farnesylation by partially purified rat brain FPT; value is a range stated for a group of compounds. How it is done:
1. In vitro enzyme assays: FPT IC50 (inhibition of farnesyl protein transferase, in vitro enzyme assay) are determined by the methods disclosed in WO/10515 or WO95/10516.

On to `N#Cc1ccc(Cn2cncc2CCNC(=O)[C@H]2CN(S(=O)(=O)c3ccccc3)CCN2C(=O)NC2CCCCC2)cc1` [Example 28R, N2-[2-[1-[(4-Cyanophenyl)methyl]-1H-imidazol-5-yl]ethyl]-N1-cyclohexyl-4-(phenylsulfonyl)-1,2(R)-piperazinedicarboxamide], for which the melting point (in general, the temperature of the solid-liquid transition) came out at 143.6 °C. Besides, the half-inhibitory concentration (IC50) (as a rule, the concentration at which inhibition is half-maximal) in series [1] fell in the range of 0.18 to 21 nM.

Compound `O=C([C@H]1CN(Cc2ccccc2)CCN1C(=O)NC1CCCCC1)N(CCCn1ccnc1)Cc1ccccc1` [Example 28S, N1-cyclohexyl-N2-[3-(1H-imidazol-1-yl)propyl]-N2,4-bis(phenylmethyl)-1,2(R)-piperazinedicarboxamide] gave a melting point of 89.1 °C. The same compound showed an IC50 in series [1] of 0.18 to 21 nM.

Compound `CC(C)(C)NC(=O)N1CCN(Cc2ccccc2)C[C@@H]1C(=O)N(CCCn1ccnc1)Cc1ccccc1` [Example 28T, N1-(1,1-dimethylethyl)-N2-[3-(1H-imidazol-1-yl)propyl]-N2,4-bis(phenylmethyl)-1,2(R)-piperazinedicarboxamide] gave a melting point of 57.8 °C. The half-inhibitory concentration (IC50) in series [1] is 0.18 to 21 nM.
